We go through 14 compounds from ChEMBL document CHEMBL3046308, “Synthesis of phenoxyphenyl pyridine and pyrazine carboxamides. Activity against Cydia pomonella (L.) eggs” (2000).

What all share (assay type): functional
Assay [1] relates to Cydia pomonella. Nature of the assay: Ovicidal activity against 24 hr old Cydia pomonella (codling moth) eggs assessed as mortality at 5 mg/ml sprayed at 19 +/- 1 degC.
For assay [2], the system named is Cydia pomonella. Nature of the assay: Ovicidal activity against 24 hr old Cydia pomonella (codling moth) eggs assessed as efficacy at 5 mg/ml sprayed at 19 +/- 1 degC.
In assay [3] the test system is Cydia pomonella. Nature of the assay: Ovicidal activity against 24 hr old Cydia pomonella (codling moth) eggs assessed as development period at 5 mg/ml sprayed at 19 +/- 1 degC.

As to `C=CCOC(=O)Nc1ccc(Oc2ccc(N)cc2)cc1`, in the assay on Cydia pomonella [1], the mortality at 5000 µg/mL stood at 48.1%. In addition, the Efficacy in the assay on Cydia pomonella [2] is 35%. For the same compound, the Time with Cydia pomonella [3] amounted to 11.3 days.

On to `C=CCOC(=O)Nc1ccc(Oc2ccc(NC(=O)c3ccccn3)cc2)cc1`, for which the mortality at 5000 µg/mL in the assay with Cydia pomonella [1] was determined as 40.7%. In addition, in the assay with Cydia pomonella [2], the Efficacy is reported as 27.2%. Also, the Time in the assay on Cydia pomonella [3] is 11.1 days.

Take `C=CCOC(=O)Nc1ccc(Oc2ccc(NC(=O)c3cccnc3)cc2)cc1`: the mortality at 5000 µg/mL in the assay on Cydia pomonella [1] came out at 34.4%. The Time in the assay with Cydia pomonella [3] is 10.2 days.

`C=CCOC(=O)Nc1ccc(Oc2ccc(NC(=O)c3ccncc3)cc2)cc1`: in the assay on Cydia pomonella [1], the mortality at 5000 µg/mL was determined as 53.8%. In addition, the Efficacy with Cydia pomonella [2] turned out to be 42.5%. The Time in the assay on Cydia pomonella [3] is 11.7 days.

For `C=CCOC(=O)Nc1ccc(Oc2ccc(NC(=O)c3cnccn3)cc2)cc1`, the mortality at 5000 µg/mL with Cydia pomonella [1] turned out to be 25.3%. The Time in the assay on Cydia pomonella [3] amounted to 9.5 days.

On to `O=C(Nc1ccc(Oc2ccccc2)cc1)c1ccncc1`, for which the mortality at 5000 µg/mL in the assay on Cydia pomonella [1] is 33.4%. Further, the Time in the assay on Cydia pomonella [3] turned out to be 10 days.

For the compound `O=C(Nc1ccc(Oc2ccccc2)cc1)c1cnccn1`, in the assay with Cydia pomonella [1], the mortality at 5000 µg/mL came to 29.2%. The Time in the assay with Cydia pomonella [3] came out at 9.7 days.

On to `CC(=O)Nc1ccc(Oc2ccc(NC(=O)c3ccccn3)cc2)cc1`, for which the mortality at 5000 µg/mL in the assay with Cydia pomonella [1] is 67.3%. For the same compound, in the assay with Cydia pomonella [2], the Efficacy was 47.1%. In the assay on Cydia pomonella [3], the Time stood at 10.9 days.

`CC(=O)Nc1ccc(Oc2ccc(NC(=O)c3cccnc3)cc2)cc1`: the mortality at 5000 µg/mL with Cydia pomonella [1] came to 57.6%. The Time in the assay on Cydia pomonella [3] turned out to be 10.6 days.

On to `CC(=O)Nc1ccc(Oc2ccc(NC(=O)c3ccncc3)cc2)cc1`, for which, in the assay on Cydia pomonella [1], the mortality at 5000 µg/mL was determined as 52.7%. In addition, the Time in the assay on Cydia pomonella [3] came out at 10.1 days.

For the compound `CC(=O)Nc1ccc(Oc2ccc(NC(=O)c3cnccn3)cc2)cc1`, in the assay with Cydia pomonella [1], the mortality at 5000 µg/mL worked out at 68.4%. Besides, the Efficacy in the assay with Cydia pomonella [2] is recorded as 49.1%. Besides, the Time in the assay on Cydia pomonella [3] amounted to 11 days.

Turning to `O=C(Nc1ccc(Oc2ccccc2)cc1)c1cccnc1`, the mortality at 5000 µg/mL in the assay with Cydia pomonella [1] was 40.9%. For the same compound, in the assay on Cydia pomonella [2], the Efficacy amounted to 26.3%. The Time in the assay with Cydia pomonella [3] turned out to be 10.6 days.

Consider `O=C(Nc1ccc(Oc2ccccc2)cc1)c1ccccn1`, for which the mortality at 5000 µg/mL with Cydia pomonella [1] turned out to be 52.4%. Besides, in the assay on Cydia pomonella [2], the Efficacy came to 40.7%. Moreover, the Time with Cydia pomonella [3] was determined as 10.8 days.

Take `CCOC(=O)NCCOc1ccc(Oc2ccccc2)cc1` [PHENOXYCARB]: in the assay with Cydia pomonella [1], the mortality at 5000 µg/mL stood at 99.3%. The Efficacy with Cydia pomonella [2] came out at 99.1%.
